Data as given in US20230295088A1, “INSULIN SENSITIZERS FOR THE TREATMENT OF DIABETES MELLITUS” (University of Iowa Research Foundation, priority 2020, published 2023).
“Also recorded” adds a separate entry of the source.

Key:
[1] = test system: GLUT4 expressing tissues of DIO mice; assay: PET/CT measurement of 18F-FDG uptake in DIO mice; type: in vivo, mouse; settings: HFD supplemented with C59 for two weeks
Description: C59 improves glucose uptake in storage tissues of DIO mice. Since insulin resistance results in a failure to transport glucose from the circulation to tissues that can use it as a source of energy or store it, it was tested whether treating insulin resistant DIO mice with C59 results in an increase in glucose uptake in GLUT4 expressing tissues. For this, insulin resistant DIO mice (fed a HFD for 10 weeks) were fed HFD or HFD supplemented with C59 for two weeks before injection of ^18F-FDG and uptake of the radioactive glucose tracer was measured by PET/CT.

[2] = test system: GLUT4 translocation in HBG4 mice; assay: In vivo GLUT4 translocation in HBG4 mice (IVIS luminescence); set-up: species or system mouse; settings: DIO HBG4 mice treated for 2 weeks, insulin 10 minutes before substrate
Description: C3 potentiates insulin action in primary adipocytes and in live mice. Using HBG4 mice, insulin stimulated GLUT4 translocation of endogenous GLUT4 was measured in primary skeletal muscle fibers and primary adipocytes. Enhancement of insulin-stimulated translocation of endogenous GLUT4 was also shown in primary adipocytes in the presence of C3. In parallel dishes, increased insulin-stimulated glucose uptake in HBG4 primary adipocyte treated with C3 was found. […] To determine if the HBG4 mouse can be used to measure GLUT4 translocation in vivo, HBG4 mice were pretreated with daily IP injections of vehicle or 50 mg/Kg C3 for 3 days. On the day of the experiment, mice were injected with vehicle or insulin IP followed by a subcutaneous injection of LgBiT and substrate around the leg muscles. Mice were then anesthetized and placed into an IVIS system to measure luminescence. […] Baseline signal was detected in vehicle and C3 treated HBG4 mice. […]
DIO HBG4 mice were treated with vehicle or C59 for 2 weeks and injected i.v. with an adenovirus coding for a secreted form of LgBiT (allowing LgBiT production and secretion predominantly by the liver into the circulation) 2 days prior to the experiment. Animal were then injected with saline or insulin 10 minutes before i.v. injection of substrate and luminescence imaging using an IVIS system.

[3] = biological target: T1, Unc119b (Homo sapiens, UniProt A6NIH7); assay: Luminescence complementation based thermal shift assay, Unc119b-HiBiT; type: binding; settings: crude extract of Unc119b-HiBiT transfected cells, 10 minutes incubation, heated 3 minutes
T1 construct: expressed in transfected cells
T1 sequence (A6NIH7 whole entry, species assumed): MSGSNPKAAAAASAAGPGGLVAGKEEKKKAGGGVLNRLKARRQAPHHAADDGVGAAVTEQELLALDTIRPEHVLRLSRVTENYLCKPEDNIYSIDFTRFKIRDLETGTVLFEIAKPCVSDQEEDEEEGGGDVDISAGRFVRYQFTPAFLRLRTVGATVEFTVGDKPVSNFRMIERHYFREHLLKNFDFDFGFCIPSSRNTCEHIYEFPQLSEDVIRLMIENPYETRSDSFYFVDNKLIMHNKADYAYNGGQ
From the text: (§1) Identification of the molecular target of C59. Since the discovery of C59 as an insulin sensitizer was achieved using a phenotypic screen, the molecular target of the compound was unknown. To identify the target, a Proteome Integral Solubility Alteration (PISA) assay was used. […] To measure the shift in thermal stability, constructs coding for Unc119-HiBiT and Unc119b-HiBit were generated, thus allowing the quantitative detection of those proteins by adding LgBiT and furimazin to the lysates and measuring luminescence. Crude extract from cells transfected with Unc119-HiBiT or Unc119b-HiBiT, were incubated with DMSO or C59 for 10 minutes, aliquoted, heated for 3 minutes at the indicated temperature and allowed to cool down to room temperature before adding LgBiT and furimazin and reading luminescence on a plate reader.

[4] = test system: Unc119 KO HBG4 cells; assay: Insulin-stimulated GLUT4 translocation in Unc119 KO HBG4 cells; type: cell-based, mouse
Description: (§2) Unc119 and Unc119b are important for the insulin sensitizing effect of C59. After identifying Unc119 proteins as molecular targets for C59, it was tested whether those proteins were responsible for the insulin sensitizing activity of C59. To this end Unc119 and Unc119b KO HBG4 cells were generated using CRISPR/Cas9 technology. For each of those cell lines two gRNA surrounding the start codon were used, thus resulting in a deletion of a fragment of the Unc119 genes that includes the ATG. Deletion of Unc119 and Unc119b in clonal cell lines were screened and verified by PCR (FIG. 4E). The effect of C59 on insulin-stimulated. […] To further test this finding, 3H-Deoxy-D-Glucose uptake in WT, Unc119 KO and Unc119b KO HBG4 cells treated with vehicle, insulin, C59 alone and C59 with insulin was measured.

[5] = Solubility in aqueous solution; type: physicochemical; settings: compared with C3
[6] = biological target: T2, Unc119 (Mus musculus, UniProt Q9Z2R6); assay: Proteome Integral Solubility Alteration (PISA) assay, Unc119; type: binding; set-up: dose or concentration left out as unconfirmed
T2 construct: endogenous in cells
From the text: as §1

[7] = test system: diet-induced obese (DIO) mice; assay: Glucose tolerance, fasting glucose and insulin in diet-induced obese (DIO) insulin-resistant mice; type: in vivo, mouse; settings: DIO mice, C59 treatment
Description: To test whether C3 improves glucose handling, WT mice were made insulin-resistant by feeding them a high fat diet (HFD) for a period of 10 weeks. After 10 weeks, mice were injected with vehicle. C3 (20 mg/kg), or the TZD rosiglitazone (20 mg/kg) for 2 weeks while remaining on the HFD. […] To further test the in vivo efficacy of C3, a glucose tolerance test (GTT) was perfromed.
To test whether C3 improves glucose handling, lean mice were injected with vehicle or C3 30 minutes before performing a glucose tolerance test. […] To further determine if C3 can reverse glucose intolerance, WT mice were made insulin-resistant by feeding them a high fat diet (HFD) for a period of 10 weeks. Diet induced obese (DIO) mice were then injected with vehicle or C3 for 2 weeks while remaining on HFD.

[8] = biological target: T3, Unc119 (Homo sapiens, UniProt Q13432); assay: Luminescence complementation based thermal shift assay, Unc119-HiBiT; type: binding; settings: crude extract of Unc119-HiBiT transfected cells, 10 minutes incubation, heated 3 minutes
T3 construct: expressed in transfected cells
From the text: as §1

[9] = test system: Unc119b KO HBG4 cells; assay: Insulin-stimulated GLUT4 translocation in Unc119b KO HBG4 cells; type: cell-based, mouse
Description: as §2

[10] = test system: WT HBG4 cells; assay: 3H-Deoxy-D-Glucose uptake in WT HBG4 cells; type: cell-based, mouse
Description: as §2

For O=C(Nc1ccc(Cl)c(Cl)c1)C12CC3CC(CC(C3)C1)C2 [Compound C59], the “18F-FDG uptake in BAT” value [1] was “significantly increased”, the “18F-FDG uptake in WAT” value [1] was “significantly increased” and the “18F-FDG uptake in heart tissues” value [1] was “significantly increased”. For the same compound, the “18F-FDG uptake in skeletal muscles” value [1] was “significantly increased”, the “insulin-stimulated GLUT4 translocation in vivo” value [2] was “very significantly improved” and the “thermostability shift for Unc119b” value [3] was 6.7 C. For the same compound, the “insulin-stimulated GLUT4 translocation” value [4] was “failed to enhance”, the “solubility in aqueous solution” value [5] was “improved solubility” and the “thermostability of Unc119 (PISA)” value ([6]; live cells, vs DMSO and C29) was “increased the thermostability; also recorded: concentration dependent increased thermostability”. For the same compound, the “thermostability of Unc119 (PISA)” value ([6]; lysates (crude extract)) was “increased the thermostability”, the “glucose handling in DIO mice” value [7] was “drastically improves” and the “thermostability shift for Unc119” value [8] was 6.6 C. The “insulin-stimulated GLUT4 translocation” value [9] was “failed to enhance”, the “3H-Deoxy-D-Glucose uptake, compound alone” value ([10]; no insulin) was “did not stimulate” and the “insulin stimulated 3H-Deoxy-D-Glucose uptake” value ([10]; with insulin) was “significantly increased”.
